Results on three compounds are retold here after patent US11351151B2, “Compound having anticancer activity and preparation method and application” (3D Medicines (Beijing) Co., Ltd., priority 2016, dated 2022).

“And” between values parts separate entries of the source, which are not always exact repeats. Equal values may be shown once.

The conditions of series [1]: liver cancer patients, phase III; cited from earlier work.
Series [2] can be described thus: Liver homogenate incubation stability study. It is filed as in vitro ADME, SD rat. The conditions noted are these: for Residual intermediate: listed as intermediate. Here is the method: (§1) The purpose of this example was to investigate the stability of the precursor Linifanib-C12-AA5 (compound 8) and the intermediate Linifanib-C12-Asp (compound 12) in plasma, liver homogenate and spleen homogenate (precursor Linifanib-C12-AA5 metabolizes into the intermediates Linifanib-C12-Asp and Linifanib; the intermediate Linifanib-C12-Asp is further metabolized to form Linifanib), and the metabolites were analyzed quantitatively, and the stability of the incubation system was verified with positive drugs, providing references for compound drug evaluation.
(§2) Experimental Procedure • 1. Animal blood was collected, blood samples were placed in EDTA anticoagulation tubes, centrifuged at 3000 g for 15 min at 4° C., plasma was separated, and 2 blood samples were mixed in equal volumes; • 2. Weighed and dissolved a certain amount of Linifanib-C12-AA5/Linifanib-C12-Asp in DMSO:MeOH (2:8), prepared 200 μM mother liquor by purity, and added the compound to the plasma to a final concentration of 2 μg/mL. The organic ratio in the system was not more than 0.5%. • 3. Incubated in a 37° C. water bath and set the sampling points to 0, 0.5, 1, 2, 4, 6, and 8 h. At each sampling point, 100 μL of each sample was added to 300 μL of acetonitrile (with internal standard) for precipitation, centrifuged at 12,000 rpm for 5 min, and 200 μL of supernatant was taken for analysis by LC-MS/MS. • 4. Configured the standard curve to quantify Linifanib, Linifanib-C12-Asp and residual Linifanib-C12-AA5. • 2.2 Linifanib-C12-AA5 and Linifanib-C12-Asp liver/spleen homogenate incubation stability study protocol Test animal • Type: SD rat; Quantity: 2 • Sex: Male; Weight: 200-250 g
(§3) Experimental Procedure • 1. Biological analysis method: established the biological analysis method of the compound Linifanib-C12-Asp and Linifanib; • 2. Rat liver/spleen was taken on the day of the experiment, two pieces were cut and mixed, and homogenized with 4 volumes (1 g: 4 mL) phosphate buffer (pH 7.4), and the temperature was controlled to not exceed 10° C. in the homogenization process; quantitative detection of protein, and controlled liver and spleen protein concentration. • 3. Added the drug Linifanib-C12-AA5, Linifanib-C12-Asp to the liver/spleen homogenate to a concentration of 1000 ng/mL, the incubation volume was 1 mL, and controlled the concentration of the organic solvent in the incubation system to not exceed 0.5%. • 4. Incubated in a 37° C. water bath and took 100 μL of samples at 0, 0.5, 1, 2, 4, 6, and 8 h, respectively. After pre-processing the samples with a definite method, the LC-MS/MS analysis was carried out. • 5. Prepared a standard curve with blank liver/spleen homogenate to quantify Linifanib-C12-Asp and Linifanib. 3. Stability Study Results

Series [3] is described as follows: Spleen homogenate incubation stability study. It is filed as in vitro ADME, SD rat. How it is done: as §1, §2, §3

Turning to `Cc1ccc(F)c(NC(=O)Nc2ccc(-c3cccc4[nH]nc(N)c34)cc2)c1` [Linifanib, reference compound], the “toxicity and side effects” value in series [1] is “greater than Sorafenib”.
In the case of `Cc1ccc(F)c(NC(=O)Nc2ccc(-c3cccc4c3c(N)nn4C(=O)CCCCCCCCCCCNC(=O)C[C@H](N)C(=O)N[C@@H](CCC(=O)N[C@@H](CCC(=O)N[C@@H](CCC(=O)N[C@@H](CCC(=O)O)C(=O)O)C(=O)O)C(=O)O)C(=O)O)cc2)c1` [Compound 8], the “conversion of prodrug into active drug, liver versus spleen homogenate” value in series [2] (FIG. 5, comparison of liver and spleen homogenate) was “more specifically converted into an active drug in the liver”.
As for `Cc1ccc(F)c(NC(=O)Nc2ccc(-c3cccc4c3c(N)nn4C(=O)CCCCCCCCCCCNC(=O)C[C@H](N)C(=O)O)cc2)c1` [Compound 12], the Residual intermediate in series [3] (first experiment, 1000 ng/mL added, 0 h, listed as intermediate) is 900 ng/mL and 1020 ng/mL; in series [3] (first experiment, 1000 ng/mL added, 0.5 h), 959 ng/mL; in series [3] (first experiment, 1000 ng/mL added, 2 h, listed as intermediate), 755 ng/mL and 681 ng/mL; in series [3] (first experiment, 1000 ng/mL added, 4 h, listed as intermediate), 610 ng/mL and 589 ng/mL; in series [3] (first experiment, 1000 ng/mL added, 6 h, listed as intermediate) it was 470 ng/mL and 467 ng/mL; in series [3] (first experiment, 1000 ng/mL added, 8 h, listed as intermediate), 499 ng/mL and 506 ng/mL. Moreover, the Residual intermediate in series [3] (second experiment, 0 h, listed as intermediate) is 812 ng/mL and 844 ng/mL; in series [3] (second experiment, 0.5 h, listed as intermediate), 770 ng/mL and 744 ng/mL; in series [3] (second experiment, 6 h, listed as intermediate), 496 ng/mL and 483 ng/mL; in series [2] (liver homogenate, first experiment, 1000 ng/mL added, 0 h), 1130 ng/mL and 1260 ng/mL; in series [2] (liver homogenate, first experiment, 1000 ng/mL added, 0.5 h) it was 1000 ng/mL and 970 ng/mL; in series [2] (liver homogenate, first experiment, 1000 ng/mL added, 1 h), 1130 ng/mL and 946 ng/mL. Further, the Residual intermediate was 1000 ng/mL and 602 ng/mL in series [2] (liver homogenate, first experiment, 1000 ng/mL added, 2 h); 294 ng/mL and 456 ng/mL in series [2] (liver homogenate, first experiment, 1000 ng/mL added, 4 h); 452 ng/mL and 226 ng/mL in series [2] (liver homogenate, first experiment, 1000 ng/mL added, 6 h); 649 ng/mL and 634 ng/mL in series [2] (liver homogenate, second experiment, 0 h); 452 ng/mL and 469 ng/mL in series [2] (liver homogenate, second experiment, 0.5 h); 309 ng/mL and 340 ng/mL in series [2] (liver homogenate, second experiment, 6 h). The “conversion into Linifanib in liver homogenate” value in series [2] (liver homogenate) is reported as “can be rapidly converted into Linifanib”.
